Experiment [1] deals with mixture of the human placental hexosaminidases HexA/HexB. Nature of the experiment: Steady state kinetics of hexosaminidases A and B with 4MU-GlcNAc. The class given is biochemical.
Experiment [2] deals with bacterial O-GlcNAcase (bOGA) (NagJ from Clostridium perfringens) (Clostridium perfringens, UniProt Q8XL08). Put plainly: biochemical. Also on record: Ratio a/b: reference not given here.
Experiment [3] relates to human lysosomal hexosaminidases HexA and HexB. As to conditions: background, literature; cited from earlier work.
A further experiment concerns the target T1, OGA (Homo sapiens, UniProt O60502).
T1 sequence (O60502 1-916): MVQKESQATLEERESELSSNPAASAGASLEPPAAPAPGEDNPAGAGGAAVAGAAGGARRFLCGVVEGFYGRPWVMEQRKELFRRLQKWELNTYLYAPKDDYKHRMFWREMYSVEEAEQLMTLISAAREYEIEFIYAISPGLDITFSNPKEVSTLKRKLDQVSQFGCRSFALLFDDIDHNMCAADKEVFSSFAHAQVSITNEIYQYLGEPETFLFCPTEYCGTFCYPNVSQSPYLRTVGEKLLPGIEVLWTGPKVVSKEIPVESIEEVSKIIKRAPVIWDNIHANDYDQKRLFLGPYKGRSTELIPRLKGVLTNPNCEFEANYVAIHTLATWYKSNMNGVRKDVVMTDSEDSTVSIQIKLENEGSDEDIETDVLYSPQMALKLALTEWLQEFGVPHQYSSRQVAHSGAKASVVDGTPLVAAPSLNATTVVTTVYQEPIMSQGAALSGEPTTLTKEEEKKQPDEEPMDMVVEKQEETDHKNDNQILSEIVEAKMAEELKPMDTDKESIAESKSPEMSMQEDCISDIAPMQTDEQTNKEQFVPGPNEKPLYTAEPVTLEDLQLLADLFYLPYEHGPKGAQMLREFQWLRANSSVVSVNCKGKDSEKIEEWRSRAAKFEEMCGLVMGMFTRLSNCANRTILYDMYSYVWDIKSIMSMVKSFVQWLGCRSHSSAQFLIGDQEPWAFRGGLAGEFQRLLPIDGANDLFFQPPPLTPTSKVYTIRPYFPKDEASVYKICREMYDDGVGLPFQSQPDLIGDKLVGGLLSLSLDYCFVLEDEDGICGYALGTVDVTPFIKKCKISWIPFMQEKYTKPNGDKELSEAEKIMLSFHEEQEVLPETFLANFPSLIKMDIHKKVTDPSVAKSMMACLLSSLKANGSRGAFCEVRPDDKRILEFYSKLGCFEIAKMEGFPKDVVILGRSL
The following applies: background, literature; cited from earlier work.

The next experiment has as its target bOGA (Clostridium perfringens, UniProt Q8XL08). The class given is biochemical.
The next experiment has as its system HEK 293 cells. Put plainly: Immunoblot: O-GlcNAc levels in treated HEK 293 cells. The class given is cell-based, human. The following applies: FIG. 4B.
A further experiment addresses T2, human OGA (hOGA) (Homo sapiens, UniProt O60502).
T2 sequence (O60502 1-916): T1 sequence (O60502 1-916)
Put plainly: Inhibition of human OGA (hOGA), methodology similar to bOGA. The class given is biochemical.

Where [4] appears, read: read-out: Ki values (in M) a) hexosaminidases.

Like-named read-outs stand apart in the source and are kept apart here.

bacterial O-GlcNAcase (bOGA) (NagJ from Clostridium perfringens), sequence (Q8XL08 31-1001 limits assumed): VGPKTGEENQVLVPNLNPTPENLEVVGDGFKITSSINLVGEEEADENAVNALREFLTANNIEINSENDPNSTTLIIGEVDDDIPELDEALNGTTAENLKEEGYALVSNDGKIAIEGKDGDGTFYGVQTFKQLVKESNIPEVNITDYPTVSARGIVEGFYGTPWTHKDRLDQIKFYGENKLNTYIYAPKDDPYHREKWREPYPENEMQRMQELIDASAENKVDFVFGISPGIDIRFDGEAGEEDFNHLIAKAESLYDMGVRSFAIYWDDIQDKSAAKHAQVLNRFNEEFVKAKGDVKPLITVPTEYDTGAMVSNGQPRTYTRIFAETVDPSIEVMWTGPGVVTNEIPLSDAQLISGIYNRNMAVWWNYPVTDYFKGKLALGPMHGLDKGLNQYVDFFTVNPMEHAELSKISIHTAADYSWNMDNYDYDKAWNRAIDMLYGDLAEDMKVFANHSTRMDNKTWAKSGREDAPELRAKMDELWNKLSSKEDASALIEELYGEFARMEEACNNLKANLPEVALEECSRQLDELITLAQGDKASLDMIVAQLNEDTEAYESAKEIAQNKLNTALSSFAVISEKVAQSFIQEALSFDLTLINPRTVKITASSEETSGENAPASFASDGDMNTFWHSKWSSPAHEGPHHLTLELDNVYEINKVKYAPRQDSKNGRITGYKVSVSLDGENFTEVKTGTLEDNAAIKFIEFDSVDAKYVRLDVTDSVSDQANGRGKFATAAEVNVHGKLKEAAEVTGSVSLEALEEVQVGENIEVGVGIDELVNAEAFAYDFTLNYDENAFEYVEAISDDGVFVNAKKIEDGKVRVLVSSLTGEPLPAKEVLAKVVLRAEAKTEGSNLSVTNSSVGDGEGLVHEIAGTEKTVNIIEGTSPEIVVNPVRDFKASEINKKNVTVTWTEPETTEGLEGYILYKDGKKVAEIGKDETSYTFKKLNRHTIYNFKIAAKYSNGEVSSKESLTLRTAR
bOGA, sequence (Q8XL08 31-1001 limits assumed): as above

As for `COC(=O)Cc1cn2c(n1)C(NC(C)=O)[C@@H](O)[C@H](O)C2CO` (stereo partly drawn) [V, reference compound], in experiment [1] (setting [4]), the Ki was 7.5 nM. In experiment [2], the inhibition constant (Ki) was determined as 0.003 nM and the Ratio a/b was 2500.
Turning to `CC(=O)NC1c2nc(CCc3ccccc3)cn2C(CO)[C@@H](O)[C@@H]1O` (stereo partly drawn) [Compound III], the Ki in experiment [1] (setting [4]) amounted to 2 nM. Moreover, in experiment [2], the Ki was determined as 0.0078 nM and the Ratio a/b was found to be 256.
Regarding `CC(=O)N[C@H]1/C(=N/OC(=O)Nc2ccccc2)O[C@H](CO)[C@@H](O)[C@@H]1O` [PUGNAc, O-(2-acetamido-2-deoxy-D-glucopyrano-sylidene)amino-N-phenylcarbamate], in experiment [3], the “inhibition of HexA and HexB (in words)” value is reported as “potent inhibitor”. For the same molecule, at OGA, the “inhibition of OGA (in words)” value was “nanomolar inhibitor”.
Regarding `CC(C)C(=O)NC1c2nc(CCc3ccccc3)cn2C(CO)[C@@H](O)C1O` (stereo partly drawn) [Compound II], at bOGA, the “activity in inhibiting bOGA from removing O-GlcNAc from proteins” value is on record as “more active than PUGNAc”. The “raising O-GlcNAc levels” value in the experiment on HEK 293 cells is reported as “more efficient at raising O-GlcNAc levels than PUGNAc”. The inhibition constant Ki in experiment [1] (HexA/HexB mixture, read-out: Ki values (in M) a) hexosaminidases) amounted to 500 nM; in experiment [1] (placental hexosaminidases, 0-400 nM inhibitor, FIG. 3, read-out: Ki), 520 ± 70 nM; in experiment [2], 0.0046 ± 0.0002 nM. Besides, the “inhibition of hOGA (in words)” value against human OGA (hOGA) is listed as “active against human OGA”; against human OGA (hOGA) (listed as GlcNacstain) it was “more potent inhibitor than PUGNac”. This molecule came in with a half-inhibitory concentration (IC50) at human OGA (hOGA) (hOGA, FIG. 5) of 8 nM. Also, in experiment [2], the Ratio a/b was 108000.
`CCC(=O)NC1c2nc(CCc3ccccc3)cn2C(CO)[C@@H](O)[C@@H]1O` (stereo partly drawn) [Compound IV]: the Ki was found to be 4.8 nM in experiment [1] (setting [4]) and 0.011 nM in experiment [2]. In experiment [2], the Ratio a/b is reported as 440.
In the case of `CC(=O)NC1c2nc(C(=O)Nc3ccccc3)cn2C(CO)[C@@H](O)C1O` (stereo partly drawn) [A], at OGA, the “inhibition of OGA (in words)” value is “only acts at the micromolar level”.
